Key:
[1] = target: hERG channels (Homo sapiens (Human), UniProt Q12809); assay: hERG Manual Patch Clamp Assay (HEK 293 cells stably expressing hERG channels); format: cell-based; conditions: human, HEK 293 cells stably expressing hERG channels, pH 7.4
[2] = target: hROMK (human Kir1.1) (Homo sapiens (Human), UniProt P48048); assay: Thallium Flux Assay (FluxOR, CHO T-Rex hROMK stable cell line); format: cell-based; conditions: CHO T-Rex hROMK cells, 10-point concentration response curve; read-out: Human ROMK TH Flux IC50
Chain of hROMK (human Kir1.1) (P48048 whole entry): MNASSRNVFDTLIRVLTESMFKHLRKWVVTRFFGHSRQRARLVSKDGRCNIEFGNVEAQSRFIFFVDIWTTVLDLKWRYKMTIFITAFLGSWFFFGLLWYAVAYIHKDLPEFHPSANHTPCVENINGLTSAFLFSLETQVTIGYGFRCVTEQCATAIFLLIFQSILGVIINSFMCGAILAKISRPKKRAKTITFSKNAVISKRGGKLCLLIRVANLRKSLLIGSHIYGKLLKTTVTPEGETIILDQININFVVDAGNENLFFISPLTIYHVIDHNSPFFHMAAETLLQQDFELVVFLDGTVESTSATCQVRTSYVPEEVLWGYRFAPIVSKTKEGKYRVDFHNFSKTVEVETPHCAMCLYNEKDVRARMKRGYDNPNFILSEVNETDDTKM

Chain of hERG channels (Q12809 whole entry): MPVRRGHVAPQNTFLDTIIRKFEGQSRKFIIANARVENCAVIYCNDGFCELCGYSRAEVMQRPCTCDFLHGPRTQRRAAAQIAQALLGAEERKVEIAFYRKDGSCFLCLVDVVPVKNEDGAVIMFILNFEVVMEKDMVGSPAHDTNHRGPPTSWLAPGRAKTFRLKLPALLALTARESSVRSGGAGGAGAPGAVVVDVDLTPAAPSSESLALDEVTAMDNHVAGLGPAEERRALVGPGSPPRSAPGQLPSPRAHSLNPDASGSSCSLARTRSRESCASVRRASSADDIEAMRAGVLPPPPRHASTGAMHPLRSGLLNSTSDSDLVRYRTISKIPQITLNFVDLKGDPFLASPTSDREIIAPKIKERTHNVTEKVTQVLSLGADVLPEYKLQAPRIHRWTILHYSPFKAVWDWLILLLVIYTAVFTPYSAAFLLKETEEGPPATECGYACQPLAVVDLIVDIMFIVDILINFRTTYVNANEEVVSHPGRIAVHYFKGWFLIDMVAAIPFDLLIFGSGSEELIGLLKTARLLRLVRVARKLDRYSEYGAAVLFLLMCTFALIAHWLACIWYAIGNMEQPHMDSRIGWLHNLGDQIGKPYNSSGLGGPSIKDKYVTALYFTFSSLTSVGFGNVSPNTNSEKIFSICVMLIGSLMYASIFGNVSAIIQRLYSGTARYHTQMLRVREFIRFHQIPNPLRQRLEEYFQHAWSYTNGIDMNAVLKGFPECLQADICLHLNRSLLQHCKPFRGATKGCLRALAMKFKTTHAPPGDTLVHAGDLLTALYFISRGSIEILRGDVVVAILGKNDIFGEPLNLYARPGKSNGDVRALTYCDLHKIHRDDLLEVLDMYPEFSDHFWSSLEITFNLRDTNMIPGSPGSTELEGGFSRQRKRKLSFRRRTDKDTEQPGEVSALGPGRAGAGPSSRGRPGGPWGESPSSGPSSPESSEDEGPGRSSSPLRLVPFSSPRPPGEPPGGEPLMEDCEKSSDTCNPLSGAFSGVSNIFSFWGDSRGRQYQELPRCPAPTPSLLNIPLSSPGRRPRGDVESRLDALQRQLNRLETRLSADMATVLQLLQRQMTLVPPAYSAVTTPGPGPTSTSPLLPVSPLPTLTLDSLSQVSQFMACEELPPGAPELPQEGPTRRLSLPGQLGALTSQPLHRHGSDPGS

| SMILES | inhibition at 1 µM [1] [%] | IC50 [2] [nM] |
| --- | --- | --- |
| Cc1c([C@@H](O)CNCc2cnn(-c3cc(C4CC4)c(C#N)cn3)c2)ccc2c1COC2=O [Example 148, (R)-4-cyclopropyl-6-(4-(((2-hydroxy-2-(4-methyl-1-oxo-1,3-dihydroisobenzofuran-5-yl)ethyl)amino)methyl)-1H-pyrazol-1-yl)nicotinonitrile] | 72 | 200 |
| COc1nc(-n2cc(CNC[C@H](O)c3ccc4c(c3C)COC4=O)cn2)ccc1C#N [Example 48, (R)-6-(4-(((2-hydroxy-2-(4-methyl-1-oxo-1,3-dihydroisobenzofuran-5-yl)ethyl)amino)methyl)-1H-pyrazol-1-yl)-2-methoxynicotinonitrile] | 67 | 14 |
| Cc1c([C@@H](O)CNCc2cnn(-c3cccc(C#N)c3)c2)ccc2c1COC2=O [Example 161, (R)-3-(4-(((2-hydroxy-2-(4-methyl-1-oxo-1,3-dihydroisobenzofuran-5-yl)ethyl)amino)methyl)-1H-pyrazol-1-yl)benzonitrile] | 48 | 77 |
| COc1cc(-n2cc(CNC[C@H](O)c3ccc4c(c3C)COC4=O)nc2C)ncc1C#N [Example 52, (R)-6-(4-(((2-hydroxy-2-(4-methyl-1-oxo-1,3-dihydroisobenzofuran-5-yl)ethyl)amino)methyl)-2-methyl-1H-imidazol-1-yl)-4-methoxynicotinonitrile] | 13 | 180 |
| Cc1c([C@@H](O)CNCc2ccc(-n3ccnc3)nc2)ccc2c1COC2=O [Example 109, (R)-5-(2-(((6-(1H-imidazol-1-yl)pyridin-3-yl)methyl)amino)-1-hydroxyethyl)-4-methylisobenzofuran-1(3H)-one] | 12 | 40 |
| Cc1c([C@@H](O)CNCc2cnn(-c3ccc4c(c3C)COC4=O)c2)ccc2c1COC2=O [Example 75, (R)-5-(1-hydroxy-2-(((1-(4-methyl-1-oxo-1,3-dihydroisobenzofuran-5-yl)-1H-pyrazol-4-yl)methyl)amino)ethyl)-4-methylisobenzofuran-1(3H)-one] | 4.3 | 65 |
| Cc1cc(-n2cnc(CNC[C@H](O)c3ccc4c(c3C)COC4=O)c2)nc(C)c1C#N [Example 68, (R)-6-(4-(((2-hydroxy-2-(4-methyl-1-oxo-1,3-dihydroisobenzofuran-5-yl)ethyl)amino)methyl)-1H-imidazol-1-yl)-2,4-dimethylnicotinonitrile] | 17 | 38 |
| Cc1c([C@@H](O)CN(Cc2ccc(-c3ccc4oc(=O)n(C)c4c3)nc2)CC2CC2)ccc2c1COC2=O [Example 162, (R)-5-(5-(((cyclopropylmethyl)(2-hydroxy-2-(4-methyl-1-oxo-1,3-dihydroisobenzofuran-5-yl)ethyl)amino)methyl)pyridin-2-yl)-3-methylbenzo[d]oxazol-2(3H)-one] | 44 | 110 |
| Cc1c(C(O)CN(C)Cc2ccc(-n3cc(C#N)c4ccccc43)cc2)ccc2c1COC2=O (stereo not shown) [Example 12-I, 1-(4-(((2-hydroxy-2-(4-methyl-1-oxo-1,3-dihydroisobenzofuran-5-yl)ethyl)(methyl)amino)methyl)phenyl)-1H-indole-3-carbonitrile] | 99 | 78 |
| Cc1c([C@@H](O)CNCc2cnc(-n3cc(C#N)c(C4CC4)n3)nc2)ccc2c1COC2=O [Example 117, (R)-3-cyclopropyl-1-(5-(((2-hydroxy-2-(4-methyl-1-oxo-1,3-dihydroisobenzofuran-5-yl)ethyl)amino)methyl)pyrimidin-2-yl)-1H-pyrazole-4-carbonitrile] | 32 | 24 |
| COCCN[C@@H](CNCc1cnn(-c2cc(C)c(C#N)cn2)c1)c1ccc2c(c1C)COC2=O [Example 57, (R)-6-(4-(((2-((2-methoxyethyl)amino)-2-(4-methyl-1-oxo-1,3-dihydroisobenzofuran-5-yl)ethyl)amino)methyl)-1H-pyrazol-1-yl)-4-methylnicotinonitrile] | 35 | 150 |
| Cc1c([C@@H](O)CNCc2cnn(-c3ccc4oc(=O)n(C)c4c3)c2)ccc2c1COC2=O [Example 81, (R)-5-(4-(((2-hydroxy-2-(4-methyl-1-oxo-1,3-dihydroisobenzofuran-5-yl)ethyl)amino)methyl)-1H-pyrazol-1-yl)-3-methylbenzo[d]oxazol-2(3H)-one] | 6 |  |
| CCN(Cc1ccc(-c2ccc3oc(=O)n(C)c3c2)nc1)C[C@H](O)c1ccc2c(c1C)COC2=O [Example 135, (R)-5-(5-((ethyl(2-hydroxy-2-(4-methyl-1-oxo-1,3-dihydroisobenzofuran-5-yl)ethyl)amino)methyl)pyridin-2-yl)-3-methylbenzo[d]oxazol-2(3H)-one] | 51 | 67 |
| Cc1c([C@@H](O)CNCc2ccc(-n3ccc(C#N)n3)nc2)ccc2c1COC2=O [Example 151, (R)-1-(5-(((2-hydroxy-2-(4-methyl-1-oxo-1,3-dihydroisobenzofuran-5-yl)ethyl)amino)methyl)pyridin-2-yl)-1H-pyrazole-3-carbonitrile] | 45 | 29 |
| Cc1c([C@@H](O)CNCc2ccc(-n3cc(C#N)c(OC(F)F)n3)nc2)ccc2c1COC2=O [Example 175, (R)-3-(difluoromethoxy)-1-(5-(((2-hydroxy-2-(4-methyl-1-oxo-1,3-dihydroisobenzofuran-5-yl)ethyl)amino)methyl)pyridin-2-yl)-1H-pyrazole-4-carbonitrile] | 86 | 3.6 |
| COc1cc(-n2cc(CNC[C@H](O)c3ccc4c(c3OC)COC4=O)cn2)ncc1C#N [Example 150, (R)-6-(4-(((2-hydroxy-2-(4-methoxy-1-oxo-1,3-dihydroisobenzofuran-5-yl)ethyl)amino)methyl)-1H-pyrazol-1-yl)-4-methoxynicotinonitrile] | 55 | 56 |
| CC(=O)N[C@@H](CNCc1cnn(-c2cc(C)c(C#N)cn2)c1)c1ccc2c(c1C)COC2=O [Example 39, (R)—N-(2-(((1-(5-cyano-4-methylpyridin-2-yl)-1H-pyrazol-4-yl)methyl)amino)-1-(4-methyl-1-oxo-1,3-dihydroisobenzofuran-5-yl)ethyl)acetamide] | 2.6 | 58 |
| COc1nc(-n2cc(CNC[C@H](O)c3ccc4c(c3C)COC4=O)cn2)cc(C)c1C#N [Example 72, (R)-6-(4-(((2-hydroxy-2-(4-methyl-1-oxo-1,3-dihydroisobenzofuran-5-yl)ethyl)amino)methyl)-1H-pyrazol-1-yl)-2-methoxy-4-methylnicotinonitrile] | 35 | 14 |
| COC(=O)N[C@@H](CNCc1cnn(-c2cc(C)c(C#N)cn2)c1)c1ccc2c(c1C)COC2=O [Example 60, methyl (R)-(2-(((1-(5-cyano-4-methylpyridin-2-yl)-1H-pyrazol-4-yl)methyl)amino)-1-(4-methyl-1-oxo-1,3-dihydroisobenzofuran-5-yl)ethyl)carbamate] | 12 | 72 |
| Cc1cc(-n2cc(CNC[C@H](O)c3ccc4c(c3C)COC4=O)c3cccnc32)ncc1C#N [Example 169, (R)-6-(3-(((2-hydroxy-2-(4-methyl-1-oxo-1,3-dihydroisobenzofuran-5-yl)ethyl)amino)methyl)-1H-pyrrolo[2,3-b]pyridin-1-yl)-4-methylnicotinonitrile] | 79 | 59 |
| Cc1c(C(O)CN(C)Cc2cnc(-c3ccc(C#N)c(F)c3)nc2)ccc2c1COC2=O (stereo not shown) [Example 19-I, 2-fluoro-4-(5-(((2-hydroxy-2-(4-methyl-1-oxo-1,3-dihydroisobenzofuran-5-yl)ethyl)(methyl)amino)methyl)pyrimidin-2-yl)benzonitrile] | 33 | 150 |
| Cc1c([C@@H](O)CNCc2cccc(-c3ccc4oc(=O)n(C)c4c3)n2)ccc2c1COC2=O [Example 133, (R)-5-(6-(((2-hydroxy-2-(4-methyl-1-oxo-1,3-dihydroisobenzofuran-5-yl)ethyl)amino)methyl)pyridin-2-yl)-3-methylbenzo[d]oxazol-2(3H)-one] | 59 | 900 |
| COc1cc(-n2cc(CNC[C@H](O)c3ccc4c(c3C)COC4=O)cn2)cc2c1oc(=O)n2C [Example 112, (R)-5-(4-(((2-hydroxy-2-(4-methyl-1-oxo-1,3-di-Hydroisobenzofuran-5-yl)ethyl)amino)methyl)-1H-pyrazol-1-yl)-7-methoxy-3-mthylbenzo[d]oxazol-2(3H)-one] | 4.2 | 66 |
| CCOC(=O)c1nn(-c2cc(C)c(C#N)cn2)cc1CNC[C@H](O)c1ccc2c(c1C)COC2=O [Example 98, ethyl (R)-1-(5-cyano-4-methylpyridin-2-yl)-4-(((2-hydroxy-2-(4-methyl-1-oxo-1,3-dihydroisobenzofuran-5-yl)ethyl)amino)methyl)-1H-pyrazole-3-carboxylate] | 54 |  |
| Cc1c(C(O)CNCc2ccc(-c3ccc(C#N)c(F)c3)nc2)ccc2c1COC2=O (stereo not shown) [Example 3-I, 2-fluoro-4-(5-(((2-hydroxy-2-(4-methyl-1-oxo-1,3-dihydroisobenzofuran-5-yl)ethyl)amino)methyl)pyridin-2-yl)benzonitrile] | 66 |  |
| Cc1cc(-c2ccc(CN(C)CC(O)c3ccc4c(c3C)COC4=O)cn2)ncc1C#N (single isomer, unassigned) [Example 22-I, 5′-(((2-hydroxy-2-(4-methyl-1-oxo-1,3-dihydroisobenzofuran-5-yl)ethyl)(methyl)amino)methyl)-4-methyl-[2,2′-bipyridine]-5-carbonitrile] | 9.5 |  |
| Cc1c(C(O)CN(C)Cc2ccc(-c3ccc(C#N)c(F)c3)nc2)ccc2c1COC2=O (single isomer, unassigned) [Example 21-I, 2-fluoro-4-(5-(((2-hydroxy-2-(4-methyl-1-oxo-1,3-dihydroisobenzofuran-5-yl)ethyl)(methyl)amino)methyl)pyridin-2-yl)benzonitrile] | 68 |  |

From patent publication US10723723B2, “Substituted bicycle heterocyclic derivatives useful as ROMK channel inhibitors” (BRISTOL-MYERS SQUIBB COMPANY, priority 2016, dated 2020)
